Measurements published in paper PMC7797213, “Vascular effects of serelaxin in patients with stable coronary artery disease: a randomized placebo-controlled trial” (Cardiovascular Research, 2020).

What was measured:
[1] = system: patients with stable coronary artery disease; assay: Aortic MRI measurements of arterial stiffness (strain, distensibility, peak flow velocity); format: in vivo, human; settings: for Ascending aorta distensibility / Ascending aorta strain / Descending aorta distensibility / Descending aorta strain / Peak flow velocity: mean ± SD
Protocol: Full left ventricular short-axis stack of cine images was acquired during the interval between stress and rest first-pass perfusion acquisitions. Following administration of the top-up contrast dose (Gadovist 0.05 mmol/kg), aortic cine and phase-velocity encoding sequences were acquired at the level of the pulmonary artery bifurcation. LGE imaging was performed with a segmented phase-sensitive inversion recovery sequence.
(§1) CMR image collection, blinding, and handling were managed by an independent imaging contract-research organization (CRO; VirtualScopics, Inc., Rochester, NY, USA). The CMR quantitative analyses were performed by blinded academic readers with >3 years of CMR experience (D.C., A.R., and C.B.). Cine images for ventricular volumes and mass and myocardial perfusion images were manually contoured (QMass, Medis, Leiden, Netherlands). Myocardial blood flow (MBF) was derived from stress and rest perfusion images using a Fermi deconvolution method,[25] implemented in MATLAB.[26] Global MPR was calculated from the ratio of global MBF evaluated at stress and at rest (MPR = stress MBF/rest MBF). Global MBF was calculated by averaging the MBF (mL/g/min) for basal, mid, and apical short-axis left ventricular slices. Ascending and descending aortic strain and distensibility were derived from manually contoured end-diastolic and end-systolic aortic cine images. Aortic strain (AS, unit free fraction) = [maximum aortic lumen area − minimum aortic lumen area]/minimum aortic lumen area. Aortic distensibility (AD, mmHg^−^1) = aortic strain/pulse pressure. Ascending aortic peak flow velocity (m/s) was derived from manually contoured phase-velocity encoding sequence images (QFlow, Medis, Leiden, Netherlands). The presence or absence of myocardial scar was qualitatively assessed on the LGE images.
Model: Change from baseline was analysed using ANCOVA model including treatment as fixed effect and baseline as continuous covariate.

[2] = system: patients with stable coronary artery disease; assay: Adenosine stress perfusion CMR: myocardial blood flow and myocardial perfusion reserve; format: in vivo, human
Protocol: (30 μg/kg/day) or matching placebo, using a computerized randomization system involving concealed treatment arms. The co-primary endpoints were the change from baseline in global myocardial perfusion reserve (MPR) measured by quantitative perfusion cardiac magnetic resonance (CMR) imaging and the change from baseline in augmentation index (AIx) measured by applanation tonometry. The primary endpoints of MPR and AIx were assessed at baseline and 47 h post-commencement of the infusion (Figure 1).
A standardized CMR protocol was acquired on 1.5 T (Siemens Avanto) or 3.0 T (Siemens Skyra and Verio) magnetic resonance imaging (MRI) scanners. The CMR protocol included standard localizers, long- and short-axis cine acquisitions, stress and rest first-pass perfusion, and late gadolinium enhancement (LGE) imaging as previously described.[24] For perfusion imaging, a saturation recovery prepared fast gradient echo sequence was used to acquire dynamic contrast-enhanced CMR during adenosine stress (140–280 µg/kg/min for 3 min) and rest, during first-pass of the IV administered contrast agent (Gadovist, 0.05 mmol/kg, 5 mL/s), followed by 20 mL saline injection (5 mL/s). Three short-axis planes through the left ventricle (basal, mid-ventricular, and apical) were obtained.
as §1

[3] = baseline to day 3, ANCOVA, n=23
[4] = 0 h (pre-dose baseline), mean ± SD, n=22
[5] = 0 h (pre-dose baseline), mean ± SD, n=24
[6] = 47 h post dose, mean ± SD, n=23
[7] = 47 h post dose, mean ± SD, n=24
[8] = Bayesian, criterion 1: increase between serelaxin and placebo greater than zero
[9] = Bayesian, criterion 2: increase between serelaxin and placebo greater than 20%
[10] = baseline to 47 h, 48 h IV infusion 30 µg/kg/day, ANCOVA, n=22
[11] = baseline to day 3, Bayesian analysis
[12] = baseline to day 3, Bayesian analysis, non-informative priors, n=22
[13] = change baseline to 47 h, ANCOVA

Serelaxin
Ascending aorta distensibility ([1]; 0 h (pre-dose baseline), n=24): 0.002 ± 0.002 (24) mm/Hg
Ascending aorta strain ([1]; 0 h (pre-dose baseline), n=24): 0.12 ± 0.06 (24)
Descending aorta distensibility ([1]; 0 h (pre-dose baseline), n=24): 0.002 ± 0.001 (24) mm/Hg
Descending aorta strain ([1]; 0 h (pre-dose baseline), n=24): 0.16 ± 0.06 (24)
Peak flow velocity ([1]; 0 h (pre-dose baseline), n=24): 128.00 ± 66.69 (24) cm/sec
Ascending aorta distensibility ([1]; 47 h post-dose, n=23): 0.002 ± 0.001 (23) mm/Hg
Ascending aorta strain ([1]; 47 h post-dose, n=23): 0.12 ± 0.06 (23)
Descending aorta distensibility ([1]; 47 h post-dose, n=23): 0.002 ± 0.001 (23) mm/Hg
Descending aorta strain ([1]; 47 h post-dose, n=23): 0.17 ± 0.05 (23)
Peak flow velocity ([1]; 47 h post-dose, n=23): 127.98 ± 60.76 (23) cm/sec
CMR-derived parameters of aortic stiffness, change from baseline to 47 h compared with placebo ([1]; ascending/descending aorta strain and distensibility, ascending aortic peak flow velocity, P > 0.05 for all): no significant change
Ascending aorta distensibility, adjusted mean difference serelaxin versus placebo ([1]; baseline to day 3, ANCOVA): -0.0001 mm/Hg
Ascending aorta strain, adjusted mean difference serelaxin versus placebo ([1]; baseline to day 3, ANCOVA): 0.01
Descending aorta distensibility, adjusted mean difference serelaxin versus placebo ([1]; baseline to day 3, ANCOVA): -0.0001 mm/Hg
Descending aorta strain, adjusted mean difference serelaxin versus placebo ([1]; baseline to day 3, ANCOVA): 0.01
Peak flow velocity, adjusted mean difference serelaxin versus placebo ([1]; baseline to day 3, ANCOVA): 13.71 cm/sec
Ascending aorta distensibility, change from baseline (adjusted mean) [1, 3]: -0.0001 mm/Hg
Ascending aorta strain, change from baseline (adjusted mean) [1, 3]: 0.01
Descending aorta distensibility, change from baseline (adjusted mean) [1, 3]: 0.0001 mm/Hg
Descending aorta strain, change from baseline (adjusted mean) [1, 3]: 0.011
Peak flow velocity, change from baseline (adjusted mean) [1, 3]: 10.12 cm/sec
Apical MBF rest, absolute value [2, 4]: 1.41 ± 0.43 (22) mL/g/min
Apical perfusion reserve index, absolute value [2, 4]: 2.24 ± 0.89 (22)
Basal MBF rest, absolute value [2, 4]: 1.16 ± 0.39 (22) mL/g/min
Basal perfusion reserve index, absolute value [2, 4]: 2.25 ± 0.92 (22)
Global MPR, absolute value [2, 4]: 2.25 ± 0.88 (22)
Mean global MBF rest, absolute value [2, 4]: 1.26 ± 0.37 (22) mL/g/min
Mid MBF rest, absolute value [2, 4]: 1.22 ± 0.37 (22) mL/g/min
Mid perfusion reserve index, absolute value [2, 4]: 2.24 ± 0.98 (22)
Apical MBF stress, absolute value [2, 5]: 2.82 ± 1.00 (24) mL/g/min
Basal MBF stress, absolute value [2, 5]: 2.34 ± 0.90 (24) mL/g/min
Mean global MBF stress, absolute value [2, 5]: 2.54 ± 0.87 (24) mL/g/min
Mid MBF stress, absolute value [2, 5]: 2.45 ± 0.84 (24) mL/g/min
Apical MBF stress, absolute value [2, 6]: 2.66 ± 0.73 (23) mL/g/min
Apical perfusion reserve index, absolute value [2, 6]: 2.01 ± 0.60 (23)
Basal MBF stress, absolute value [2, 6]: 2.14 ± 0.84 (23) mL/g/min
Global MPR, absolute value [2, 6]: 1.98 ± 0.59 (23)
Mean global MBF stress, absolute value [2, 6]: 2.32 ± 0.67 (23) mL/g/min
Mid MBF stress, absolute value [2, 6]: 2.16 ± 0.70 (23) mL/g/min
Mid perfusion reserve index, absolute value [2, 6]: 1.93 ± 0.70 (23)
Apical MBF rest, absolute value [2, 7]: 1.41 ± 0.34 (24) mL/g/min
Basal MBF rest, absolute value [2, 7]: 1.13 ± 0.39 (24) mL/g/min
Mean global MBF rest, absolute value [2, 7]: 1.24 ± 0.32 (24) mL/g/min
Mid MBF rest, absolute value [2, 7]: 1.17 ± 0.31 (24) mL/g/min
Mean global MBF rest, probability of success Pr (Criterion 1|data) [2, 8]: 0.80
Mean global MBF stress, probability of success Pr (Criterion 1|data) [2, 8]: 0.38
Global MPR, probability of success Pr (Criterion 1|data) ([2]; Bayesian, criterion 1: increase in MPRI between serelaxin and placebo greater than zero): 0.22
Mean global MBF rest, probability of success Pr (Criterion 2|data) [2, 9]: 0.0014
Mean global MBF stress, probability of success Pr (Criterion 2|data) [2, 9]: 0.0006
Global MPR, probability of success Pr (Criterion 2|data) ([2]; Bayesian, criterion 2: increase in MPRI between serelaxin and placebo greater than 20%): 0.0002
Global MPR, change from baseline (adjusted mean) [2, 10]: -0.24
Mean global MBF rest, change from baseline (adjusted mean) [2, 10]: 0.01 mL/g/min
Mid MBF rest, change from baseline (adjusted mean) ([2]; baseline to 47 h, ANCOVA, n=22): -0.01 mL/g/min
Mid perfusion reserve index, change from baseline (adjusted mean) ([2]; baseline to 47 h, ANCOVA, n=22): -0.26
Mid MBF stress, change from baseline (adjusted mean) ([2]; baseline to 47 h, ANCOVA, n=23): -0.27 mL/g/min
Mean global MBF stress, change from baseline (adjusted mean) ([2]; baseline to 47 h, adenosine stress, 48 h IV infusion 30 µg/kg/day, ANCOVA, n=23): -0.22 mL/g/min
Global MPR, estimate of difference (serelaxin vs placebo), posterior median [2, 11]: -0.11
Mean global MBF rest, estimate of difference (serelaxin vs placebo), posterior median [2, 11]: 0.05 mL/g/min
Mean global MBF stress, estimate of difference (serelaxin vs placebo), posterior median [2, 11]: -0.05 mL/g/min
Global MPR, change from baseline, within treatment posterior median [2, 12]: -0.25
Mean global MBF rest, change from baseline, within treatment posterior median [2, 12]: 0.01 mL/g/min
Mean global MBF stress, change from baseline, within treatment posterior median ([2]; baseline to day 3, Bayesian analysis, non-informative priors, n=23): -0.22 mL/g/min
Mean global MBF rest, adjusted mean difference serelaxin versus placebo ([2]; change baseline to 47 h, 48 h IV infusion 30 µg/kg/day, ANCOVA): 0.05 mL/g/min
Global MPR, adjusted mean difference serelaxin versus placebo [2, 13]: -0.11
Mid MBF rest, adjusted mean difference serelaxin versus placebo [2, 13]: 0.06 mL/g/min
Mid MBF stress, adjusted mean difference serelaxin versus placebo [2, 13]: -0.11 mL/g/min
Mid perfusion reserve index, adjusted mean difference serelaxin versus placebo [2, 13]: -0.19
Mean global MBF stress, adjusted mean difference serelaxin versus placebo ([2]; change baseline to 47 h, adenosine stress, ANCOVA): -0.05 mL/g/min
